Results on 38 compounds are retold here after the Kinase Knowledgebase extract (Sharma et al. 2016).

The IC50 is the concentration that inhibits the measured activity by half. A high value points to weaker potency.

Test [1] addresses MAPK14 (UniProt Q16539). Put plainly: MAPK14 Kinase Inhibition.
Test [2] has as its target MAPK14 (UniProt Q16539). Briefly: TNF Inhibition (In Vivo).
Test [3] deals with MAPK14 (UniProt Q16539). Put plainly: MAPK14 Kinase Binding Inhibition.

Each structure is given as a SMILES string. Bounds are passed on as bounds.

Chain of MAPK14 (Q16539 whole entry, looked up): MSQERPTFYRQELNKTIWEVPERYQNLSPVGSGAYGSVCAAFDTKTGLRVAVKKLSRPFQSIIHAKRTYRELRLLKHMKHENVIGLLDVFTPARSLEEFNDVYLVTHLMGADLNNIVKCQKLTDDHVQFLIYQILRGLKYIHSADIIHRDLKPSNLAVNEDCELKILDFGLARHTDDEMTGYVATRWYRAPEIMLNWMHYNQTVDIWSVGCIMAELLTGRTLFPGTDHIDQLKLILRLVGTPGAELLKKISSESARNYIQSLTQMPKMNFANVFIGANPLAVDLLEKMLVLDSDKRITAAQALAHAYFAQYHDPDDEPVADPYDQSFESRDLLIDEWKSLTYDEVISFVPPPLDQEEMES

For the compound `Fc1ccc(-c2ncn(C3CCNCC3)c2-c2ccnc(Nc3cccc(F)c3)n2)cc1`, in test [1], the IC50 is below 50 µM. In addition, the inhibition in test [2] is below 50 µM.
In the case of `CN1CCC(n2cnc(-c3ccc(F)cc3)c2-c2ccnc(NCc3cccc4ccccc34)n2)CC1`, the inhibition in test [3] and in test [2] was below 50 µM throughout.
`Oc1cccc(Nc2nccc(-c3c(-c4ccc(F)cc4)ncn3C3CCNCC3)n2)c1` had an IC50 in test [1] below 50 µM.
Consider `CN1CCC(n2cnc(-c3ccc(F)cc3)c2-c2ccnc(Nc3ccccc3)n2)CC1`, for which the inhibition in test [3] and in test [2] was below 50 µM throughout.
As for `O=C1CCC(n2cnc(-c3ccc(F)cc3)c2-c2ccnc(Nc3ccccc3)n2)CC1`, the inhibition in test [3] and in test [2] was below 50 µM throughout.
Regarding `CN1CCC(n2cnc(-c3ccc(F)cc3)c2-c2ccnc(NCCO)n2)CC1`, the inhibition in test [3] and in test [2] was below 50 µM throughout.
In the case of `COc1cccc(Nc2nccc(-c3c(-c4ccc(F)cc4)ncn3C3CCNCC3)n2)c1`, the IC50 in test [1] was below 50 µM.
Still for that read-out and setting: the result for `CCOC(=O)N1CCC(n2cnc(-c3ccc(F)cc3)c2-c2ccnc(Nc3ccc(OCc4ccccc4)cc3)n2)CC1` reads below 50 µM.
Compound `CN1CCC(n2cnc(-c3ccc(F)cc3)c2-c2ccnc(NCCCN3CCOCC3)n2)CC1` came in with an inhibition in test [3] below 50 µM.
Still for that read-out and setting: for `CCOCCCNc1nccc(-c2c(-c3ccc(F)cc3)ncn2C2CCNCC2)n1` the value was below 50 µM.
In test [2], `Fc1ccc(-c2ncn(C3CCNCC3)c2-c2ccnc(NCCCn3ccnc3)n2)cc1` returned an inhibition below 50 µM.
`O[C@H]1CC[C@H](n2cnc(-c3ccc(F)cc3)c2-c2ccnc(Nc3ccccc3)n2)CC1` returned an inhibition in test [3] below 50 µM.
Same read-out and setting: for `CN1CCC(n2cnc(-c3ccc(F)cc3)c2-c2ccnc(NC3CCN(Cc4ccccc4)CC3)n2)CC1` the value was below 50 µM; for `CN1CCC(n2cnc(-c3ccc(F)cc3)c2-c2ccnc(NCc3ccc4c(c3)OCO4)n2)CC1`, below 50 µM.
On to `COc1ccccc1Nc1nccc(-c2c(-c3ccc(F)cc3)ncn2C2CCNCC2)n1`, for which the IC50 in test [1] was below 50 µM.
Compound `Fc1ccc(cc1)c2ncn(C3CCNCC3)c2c4ccnc(NCCCN5=CNC=C5)n4` yielded an inhibition in test [3] below 50 µM.
For `CN1CCC(n2cnc(-c3ccc(F)cc3)c2-c2ccnc(Nc3cccc(Br)c3)n2)CC1`, the inhibition in test [3] is below 50 µM.
`CC1(C)CC(n2cnc(-c3ccc(F)cc3)c2-c2ccnc(NCCO)n2)CC(C)(C)N1`: the inhibition in test [3] and in test [2] was below 50 µM in each case.
In test [3], `NCCNc1nccc(-c2c(-c3ccc(F)cc3)ncn2C2CCNCC2)n1` came in with an inhibition of 50 µM.
For `Fc1ccc(-c2ncn(C3CCNCC3)c2-c2ccnc(Nc3ccc(F)c(F)c3)n2)cc1`, the IC50 in test [1] is below 50 µM.
In test [3], `CCOC(=O)N1CCC(Nc2nccc(-c3c(-c4ccc(F)cc4)ncn3C3CCN(C)CC3)n2)CC1` came in with an inhibition below 50 µM.
The compound `CSc1ccc(-c2ncn(C3CCNCC3)c2-c2ccnc(Nc3ccccc3)n2)cc1` displayed an IC50 in test [1] below 50 µM.
The same measure, in the same setting: the result for `COc1ccc(Nc2nccc(-c3c(-c4ccc(F)cc4)ncn3C3CCNCC3)n2)cc1` reads below 50 µM.
Take `CN1CCC(n2cnc(-c3ccc(F)cc3)c2-c2ccnc(NC3CC(C)(C)NC(C)(C)C3)n2)CC1`: the inhibition in test [3] is below 50 µM.
For `C[S+]([O-])c1ccc(-c2ncn(C3CCNCC3)c2-c2ccnc(Nc3ccccc3)n2)cc1` (stereo not given), the IC50 in test [1] was below 50 µM.
The same measure, in the same setting: for `Fc1ccc(-c2ncn(C3CCNCC3)c2-c2ccnc(Nc3cccc(C(F)(F)F)c3)n2)cc1` the value was below 50 µM.
`CN1CCC(n2cnc(-c3ccc(F)cc3)c2-c2ccnc(NC3CCSCC3)n2)CC1` yielded an inhibition in test [3] below 50 µM.
In the case of `Fc1ccc(-c2ncn(C3CCNCC3)c2-c2ccnc(Nc3ccccc3)n2)cc1`, the inhibition in test [3] and in test [2] was below 50 µM each time.
For `CN1CCC(n2cnc(-c3ccc(F)cc3)c2-c2ccnc(NCc3cccc(Cl)c3)n2)CC1`, the inhibition in test [3] and in test [2] was below 50 µM in each case.
`Fc1ccc(-c2ncn(C3CCNCC3)c2-c2ccnc(Nc3ccccc3)c2)cc1`: the inhibition in test [3] and in test [2] was below 50 µM in each case.
As for `Oc1ccc(Nc2nccc(-c3c(-c4ccc(F)cc4)ncn3C3CCNCC3)n2)cc1`, the IC50 in test [1] was below 50 µM.
In test [3], `CN1CCC(n2cnc(-c3ccc(F)cc3)c2-c2ccnc(NCCc3c[nH]c4ccc(Cl)cc34)n2)CC1` showed an inhibition below 50 µM.
The compound `CN1CCC(n2cnc(-c3ccc(F)cc3)c2-c2ccnc(NC3CCNCC3)n2)CC1` displayed an inhibition in test [3] below 50 µM.
In turn, `CCOC(=O)N1CCC(n2cnc(-c3ccc(F)cc3)c2-c2ccnc(Nc3cccc(OCc4ccccc4)c3)n2)CC1` had an IC50 in test [1] below 50 µM.
Consider `Fc1ccc(Nc2nccc(-c3c(-c4ccc(F)cc4)ncn3C3CCNCC3)n2)cc1`, for which, in test [1], the IC50 was below 50 µM. Moreover, the inhibition in test [2] was below 50 µM.
For `CN1CCC(n2cnc(-c3ccc(F)cc3)c2-c2ccnc(NCc3ccccc3)n2)CC1`, the inhibition in test [3] and in test [2] was below 50 µM throughout.
For `CC1(C)CC(n2cnc(-c3ccc(F)cc3)c2-c2ccnc(Nc3ccccc3)n2)CC(C)(C)N1`, the inhibition in test [3] was below 50 µM.
`Fc1ccc(-c2ncn(C3CCNCC3)c2-c2ccnc(Nc3ccccc3F)n2)cc1`: the IC50 in test [1] was below 50 µM. The inhibition in test [2] is below 50 µM.
